US20240109853A1 (Shanghai Yao Yuan Biotechnology Co., Ltd., priority 2020, published 2024)
pIC50: −log10 of the molar value. Like-named read-outs stand apart in the source and are kept apart here.

Columns and labels:
[1] = molecular target: ALPK1 (Homo sapiens (Human), UniProt Q96QP1); test: ALPK1 in vitro kinase assay (HTRF of TIFA phosphorylation); assay type: biochemical
[2] = molecular target: hALPK1-V1092A (Homo sapiens (Human), UniProt Q96QP1, V1092A); test: cell-based
Description: Accordingly, we used IL-8 secretion as an indicator of activated ALPK1 inhibition in cells expressing these mutations.
Transfection was performed according to manufacturer's protocols (Lipofectamine™ 3000, ThermoFisher). Transfected cells were selected, seeded onto 96-well plates and treated with serial dilutions of the test compounds for 6.5 hr. Following treatment, cell viability was determined using a luminescent cell viability assay (Cell Counting-Lite Assay or “CCL Assay” from Vazyme Biotech Co., Ltd.) and cell free supernatants were collected and analyzed for IL-8 protein by IL-8 ELISA as described above.
Fresh medium and compound were added at 18 hours. Cell viability and IL-8 secretion were determined 6 hours after the second addition of compound, using the CCL assay and IL-8 ELISA as described above.

[3] = system: ALPK1-dependent NFκB reporter gene activation in HEK293 cells stably expressing an NF-kB reporter (G9 cells); test: NFκB gene reporter alkaline phosphatase assay; assay type: cell-based; details: Homo sapiens, HEK293; read-out: NFkB assay IC50
In short: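 Using pNPP substrate, NF-kB reporter activity in stably transfected HEK293 (G9) cells is determined following 30 min compound pretreatment and stimulation with D-glycero-D-manno-6-fluoro-heptose-1β-S-ADP. Logistic curve fitting yields IC50.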

[4] = ALPK1 2 nM, TIFA substrate, ADP-Heptose activator, HTRF readout

Chain of hALPK1-V1092A (Q96QP1 whole entry V1092A): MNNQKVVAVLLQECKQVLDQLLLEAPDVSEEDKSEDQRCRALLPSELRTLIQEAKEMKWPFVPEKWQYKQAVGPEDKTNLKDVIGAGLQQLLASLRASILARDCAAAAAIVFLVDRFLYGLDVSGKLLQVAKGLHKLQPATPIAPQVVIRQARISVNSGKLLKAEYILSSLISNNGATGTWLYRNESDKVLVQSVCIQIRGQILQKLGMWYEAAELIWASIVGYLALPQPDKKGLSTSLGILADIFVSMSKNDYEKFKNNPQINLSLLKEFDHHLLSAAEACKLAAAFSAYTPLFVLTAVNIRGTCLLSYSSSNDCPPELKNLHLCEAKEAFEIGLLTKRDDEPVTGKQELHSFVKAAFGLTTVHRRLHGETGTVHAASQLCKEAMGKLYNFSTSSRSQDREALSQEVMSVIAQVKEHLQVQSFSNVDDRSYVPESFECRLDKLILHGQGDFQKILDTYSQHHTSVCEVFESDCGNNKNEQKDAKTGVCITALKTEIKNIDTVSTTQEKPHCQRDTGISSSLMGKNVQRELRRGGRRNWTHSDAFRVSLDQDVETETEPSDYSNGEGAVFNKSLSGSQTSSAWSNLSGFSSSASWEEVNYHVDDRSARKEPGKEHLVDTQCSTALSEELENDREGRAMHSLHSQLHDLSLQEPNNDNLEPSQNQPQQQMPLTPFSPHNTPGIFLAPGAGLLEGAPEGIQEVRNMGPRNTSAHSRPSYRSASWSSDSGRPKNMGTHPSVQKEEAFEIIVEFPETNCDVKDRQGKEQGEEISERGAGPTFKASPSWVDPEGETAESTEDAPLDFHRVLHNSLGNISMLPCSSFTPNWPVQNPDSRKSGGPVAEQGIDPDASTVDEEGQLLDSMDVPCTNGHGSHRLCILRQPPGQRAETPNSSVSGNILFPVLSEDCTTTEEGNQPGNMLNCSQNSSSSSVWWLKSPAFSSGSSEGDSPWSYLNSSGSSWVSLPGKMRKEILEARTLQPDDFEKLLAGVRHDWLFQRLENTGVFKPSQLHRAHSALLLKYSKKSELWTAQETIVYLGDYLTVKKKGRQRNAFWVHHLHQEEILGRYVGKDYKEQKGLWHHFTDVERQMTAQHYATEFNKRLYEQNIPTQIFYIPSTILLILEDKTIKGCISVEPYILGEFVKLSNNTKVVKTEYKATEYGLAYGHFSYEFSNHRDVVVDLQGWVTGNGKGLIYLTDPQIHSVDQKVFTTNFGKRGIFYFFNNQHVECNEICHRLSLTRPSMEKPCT
Chain of ALPK1 (Q96QP1 whole entry): as the sequence (Q96QP1 whole entry V1092A) above, with A1092V counted along it

Row | SMILES | pIC50 [1, 4] | pIC50 [2] | pIC50 [3] | pIC50 [1]
1 | C#C[C@@](C)(c1ccc(Cl)cc1)c1csc(NC(=O)c2ccc(N3CCNCC3)cc2)n1 (stereo in doubt) [Example B067, N-(4-(2-(4-chlorophenyl)but-3-yn-2-yl)thiazol-2-yl)-4-(piperazin-1-yl)benzamide] | 7.05 | 6.67 |  | 
2 | C#C[C@](C)(c1ccc(Cl)cc1)c1csc(NC(=O)c2ccc(N3CCNCC3)cc2)n1 (stereo in doubt) [Example B068, N-(4-(2-(4-chlorophenyl)but-3-yn-2-yl)thiazol-2-yl)-4-(piperazin-1-yl)benzamide] | 6.28 | 4.57 |  | 
3 | C#C[C@](C)(c1ccc(Cl)cc1)c1csc(NC(=O)c2c(F)ccc(N3CCNCC3)c2F)n1 (stereo in doubt) [Example B075, N-(4-(2-(4-chlorophenyl)but-3-yn-2-yl)thiazol-2-yl)-2,6-difluoro-3-(piperazin-1-yl)benzamide] | 6.51 | 4.89 |  | 
4 | C#C[C@@](C)(c1ccc(Cl)cc1)c1csc(NC(=O)c2c(F)ccc(N3CCNCC3)c2F)n1 (stereo in doubt) [Example B076, N-(4-(2-(4-chlorophenyl)but-3-yn-2-yl)thiazol-2-yl)-2,6-difluoro-3-(piperazin-1-yl)benzamide] | 7.07 | 6.89 |  | 
5 | C#C[C@](C)(c1ccc(F)cc1)c1csc(NC(=O)c2c(F)cc(N3CCNCC3)cc2F)n1 (stereo in doubt) [Example C034, 2,6-difluoro-N-(4-(2-(4-fluorophenyl)but-3-yn-2-yl)thiazol-2-yl)-4-(piperazin-1-yl)benzamide] | 7.40 | 6.56 |  | 
6 | C#C[C@@](C)(c1ccc(F)cc1)c1csc(NC(=O)c2c(F)cc(N3CCNCC3)cc2F)n1 (stereo in doubt) [Example C035, 2,6-difluoro-N-(4-(2-(4-fluorophenyl)but-3-yn-2-yl)thiazol-2-yl)-4-(piperazin-1-yl)benzamide] | 7.72 | 7.17 |  | 
7 | C#C[C@](C)(c1ccc(Cl)c(F)c1)c1csc(NC(=O)c2c(F)cc(N3CCNCC3)cc2F)n1 (stereo in doubt) [Example C037, N-(4-(2-(4-chloro-3-fluorophenyl)but-3-yn-2-yl)thiazol-2-yl)-2,6-difluoro-4-(piperazin-1-yl)benzamide] | 6.82 | 5.08 |  | 
8 | C#C[C@@](C)(c1ccc(Cl)c(F)c1)c1csc(NC(=O)c2c(F)cc(N3CCNCC3)cc2F)n1 (stereo in doubt) [Example C038, N-(4-(2-(4-chloro-3-fluorophenyl)but-3-yn-2-yl)thiazol-2-yl)-2,6-difluoro-4-(piperazin-1-yl)benzamide] | 7.77 | 6.45 |  | 
9 | C#C[C@](C)(c1ccc(C)cc1)c1csc(NC(=O)c2c(F)cc(N3CCNCC3)cc2F)n1 (stereo in doubt) [Example C040, 2,6-difluoro-N-[4-[1-methyl-1-(p-tolyl)prop-2-ynyl]thiazol-2-yl]-4-piperazin-1-yl-benzamide] | 7.54 | 7.17 |  | 
10 | C#C[C@@](C)(c1ccc(C)cc1)c1csc(NC(=O)c2c(F)cc(N3CCNCC3)cc2F)n1 (stereo in doubt) [Example C041, 2,6-difluoro-N-[4-[1-methyl-1-(p-tolyl)prop-2-ynyl]thiazol-2-yl]-4-piperazin-1-yl-benzamide] | 8.15 | 6.02 |  | 
11 | C#C[C@@](C)(c1ccc(OC)cc1)c1csc(NC(=O)c2c(F)cc(N3CCNCC3)cc2F)n1 (stereo in doubt) [Example C048, 2,6-difluoro-N-(4-(2-(4-methoxyphenyl)but-3-yn-2-yl)thiazol-2-yl)-4-(piperazin-1-yl)benzamide] | 7.80 | 5.25 |  | 
12 | C#CC(C)(c1ccc(Cl)cc1)c1csc(NC(=O)N2CCC(O)C2)n1 (stereo not drawn) [Example A269, N-(4-(2-(4-chlorophenyl)but-3-yn-2-yl)thiazol-2-yl)-3-hydroxypyrrolidine-1-carboxamide] |  |  | 5.90 | 6.06
13 | C#CC(C)(c1ccc(Cl)cc1)c1csc(NC(=O)N2CCC(CO)C2)n1 (stereo not drawn) [Example A270, N-(4-(2-(4-chlorophenyl)but-3-yn-2-yl)thiazol-2-yl)-3-(hydroxymethyl)pyrroli-dine-1-carboxamide] |  |  | 5.71 | 6.04
14 | C#CC(C)(c1ccc(Cl)cc1)c1csc(NC(=O)NO)n1 (stereo not drawn) [Example A271, 1-(4-(2-(4-chlorophenyl)but-3-yn-2-yl)thiazol-2-yl)-3-hydroxyurea] |  |  | 6.14 | 6.31
15 | C#CC(C)(c1ccc(Cl)cc1)c1nc(NC(=O)NCCO)sc1F (stereo not drawn) [Example A279, 1-(4-(2-(4-chlorophenyl)but-3-yn-2-yl)-5-fluorothiazol-2-yl)-3-(2-hydroxyethyl)urea] |  |  | 5.37 | 6.65
16 | C#C[C@@](C)(c1ccc(F)cc1)c1csc(NC(=O)NCCO)n1 [Example A283, 1-(4-(2-(4-fluorophenyl)but-3-yn-2-yl)thiazol-2-yl)-3-(2-hydroxyethyl)urea] |  |  | 5.77 | 6.26
17 | C#C[C@](C)(c1ccc(F)cc1)c1csc(NC(=O)NCCS(N)(=O)=O)n1 [Example A284, 2-(3-(4-(2-(4-fluorophenyl)but-3-yn-2-yl)thiazol-2-yl)ureido)ethanesulfona-mide] |  |  | 5.59 | 6.18

Row | SMILES | pIC50 [1, 4] | pIC50 [2] | pIC50 [3] | pIC50 [1]
18 | C#C[C@@](C)(c1ccc(F)cc1)c1csc(NC(=O)NCCS(N)(=O)=O)n1 [Example A285, 2-(3-(4-(2-(4-fluorophenyl)but-3-yn-2-yl)thiazol-2-yl)ureido)ethanesulfona-mide] |  |  | 5.87 | 6.46
19 | C#C[C@](C)(c1ccc(Cl)cc1)c1csc(NC(=O)NCCS(N)(=O)=O)n1 [Example A288, 2-(3-(4-(2-(4-chlorophenyl)but-3-yn-2-yl)thiazol-2-yl)ureido)ethanesulfona-mide] |  |  | 5.92 | 6.57
20 | C#C[C@@](C)(c1ccc(Cl)cc1)c1csc(NC(=O)NC2(CO)CC2)n1 [Example A295, 1-(4-(2-(4-chlorophenyl)but-3-yn-2-yl)thiazol-2-yl)-3-(1-(hydroxymethyl)cyclopro-pyl)urea] |  |  | 5.75 | 6.28
21 | C#C[C@](C)(c1ccc(Cl)cc1)c1csc(NC(=O)NC2(CO)CC2)n1 [Example A296] |  |  | 5.32 | 6.94
22 | [2H]c1sc(NC(=O)NCCO)nc1[C@@](C)(C#C)c1ccc(Cl)cc1 [Example A299, 1-(4-(2-(4-chlorophenyl)but-3-yn-2-yl)thiazol-2-yl)-3-(2-hydroxyethyl)urea] |  |  | 6.34 | 7.24
23 | [2H]c1sc(NC(=O)NCCO)nc1[C@](C)(C#C)c1ccc(Cl)cc1 [Example A300, 1-(4-(2-(4-chlorophenyl)but-3-yn-2-yl)thiazol-2-yl)-3-(2-hydroxyethyl)urea] |  |  | 5.52 | 6.47
24 | C#C[C@](C)(c1ccc(Cl)cc1)c1csc(NC(=O)NC[C@@H](O)CO)n1 [Example A301, 1-(4-(2-(4-chlorophenyl)but-3-yn-2-yl)thiazol-2-yl)-3-((R)-2,3-dihydroxypropyl)urea] |  |  | 5.65 | 6.45
25 | C#C[C@](C)(c1ccc(Cl)cc1)c1csc(NC(=O)NC[C@H](O)CO)n1 [Example A302, 1-(4-(2-(4-chlorophenyl)but-3-yn-2-yl)thiazol-2-yl)-3-((S)-2,3-dihydroxypropyl)urea] |  |  | 5.69 | 6.38
26 | C#C[C@@](C)(c1ccc(Cl)cc1)c1csc(NC(=O)NC[C@@H](O)CO)n1 [Example A303, 1-(4-(2-(4-chlorophenyl)but-3-yn-2-yl)thiazol-2-yl)-3-((R)-2,3-dihydroxypropyl)urea] |  |  | 6.18 | 7.00
27 | C#C[C@@](C)(c1ccc(Cl)cc1)c1csc(NC(=O)NC[C@H](O)CO)n1 [Example A304, 1-(4-(2-(4-chlorophenyl)but-3-yn-2-yl)thiazol-2-yl)-3-((S)-2,3-dihydroxypropyl)urea] |  |  | 6.28 | 7.05
28 | C#CC(C)(c1ccc(Cl)cc1)c1csc(NC(=O)N2CCC(O)CC2)n1 (stereo not drawn) [Example A307, N-(4-(2-(4-chlorophenyl)but-3-yn-2-yl)thiazol-2-yl)-4-hydroxypiperidine-1-carboxamide] |  |  | 5.50 | 5.69
29 | C#CC(C)(c1ccc(Cl)cc1)c1csc(NC(=O)N2CCNCC2)n1 (stereo not drawn) [Example A308, N-(4-(2-(4-chlorophenyl)but-3-yn-2-yl)thiazol-2-yl)piperazine-1-carboxamide] |  |  | 5.27 | 5.81
30 | C#CC(C)(c1ccc(Cl)cc1)c1csc(NC(=O)NC2CCN(Cc3ccc(C)cc3)C2)n1 (stereo not drawn) [Example A309, 1-(4-(2-(4-chlorophenyl)but-3-yn-2-yl)thiazol-2-yl)-3-(1-(4-methylbenzyl)pyrrolidin-3-yl)urea] |  |  | 5.39 | 5.85
31 | C#CC(C)(c1ccc(F)cc1)c1csc(NC(=O)c2c(F)cc(N3CCNCC3CO)cc2F)n1 (stereo not drawn) [Example B099, 2,6-difluoro-N-[4-[1-(4-fluorophenyl)-1-methyl-prop-2-ynyl]thiazol-2-yl]-4-[2-(hydroxymethyl)piperazin-1-yl]benzamide] | 7.52 | 6.37 |  | 
32 | C#CC(C)(c1ccc(OC)cc1)c1csc(NC(=O)c2c(F)cc(N3CCNCC3CO)cc2F)n1 (stereo not drawn) [Example B100, 2,6-difluoro-4-[2-(hydroxymethyl)piperazin-1-yl]-N-[4-[1-(4-methoxyphenyl)-1-methyl-prop-2-ynyl]thiazol-2-yl]benzamide] | 7.68 | 6.37 |  | 
33 | CC(c1ccccc1)c1csc(NC(=O)c2c(F)cc(N3CCNCC3)cc2F)n1 (stereo not drawn) [Example C002, 2,6-difluoro-N-(4-(1-phenylethyl)thiazol-2-yl)-4-(piperazin-1-yl)benzamide] | 7.33 | 5.47 |  | 
